Results from patent EP4414363A1, “INDOLYLACETIC DERIVATIVES FOR USE IN THE TREATMENT OF NEURODEGENERATIVE DISEASES” (Miuli Pharma S.r.l., priority 2023, dated 2024).

What was measured:
iNOS = assay: Western blot of LPS-induced iNOS expression in microglia cells; assay type: cell-based, murine; conditions: BV2 microglial cells, LPS 100 ng/mL, compound 100nM, 24h
Protocol: (§1) Human neuroblastoma SH-SY5Y cells (Cell bank Line Collection ICLC) and immortalized murine microglial BV-2 cell line were grown as monolayers in polystyrene dishes (12 or 6 wells plate) in Dulbecco's modified Eagle's medium (DMEM) with 10% (v/v) fetal bovine serum (FBS), L glutamine (2 mM), 1% penicillin (50 IU/ml) and streptomycin (50 µg/ml). Cells were grown in a humidified atmosphere containing 95% air and 5% CO2, and the medium was changed every two days. All experiments were conducted in cultures containing cells between the 4th and 8th passages.
(§2) SH-SY5Y and BV-2 cells were plated with a confluence of 65.000 cell/mL. After 24 hours of cell seeding, medium was changed for 6h starvation in a medium containing 0% FBS. […]
(§3) Cells were exposed to compounds or vehicle and, after 24 hours, have been analyzed for Western Blotting experiments or MTT assay.
(§4) Western blot analysis was performed as previously described. Protein samples (50 µg) were analyzed on 8% subjected to SDS-polyacrylamide gel electrophoresis (SDS-PAGE) and electrotransferred onto Hybond ECL nitrocellulose paper (Amersham, Milan, Italy). […]
(§5) Immunoreactive bands were detected using ECL (Amersham). The optical density of the bands (normalized for β-actin) was determined by Chemi-Doc Imaging System (Bio-Rad, Segrate, Italy).

[1] = from reference [15]; cited from earlier work
TNF-α = assay: Western blot of LPS-induced TNF-α expression in microglia cells; assay type: cell-based, murine; conditions: BV2 microglial cells, LPS 100 ng/mL, compound 100nM, 24h
Protocol: as §1, §2, §3, §4, §5

COX2 = assay: Western blot of COX2 expression in LPS-exposed microglia cells; assay type: cell-based, murine; conditions: BV2 microglial cells, LPS 100 ng/mL, compound 100nM, 24h
Protocol: as §1, §2, §3, §4, §5

SOD1^G93A mice [2] = assay: Survival of ALS mice under prolonged treatment; assay type: in vivo; conditions: daily i.p. from 2 months of age, dose group not stated, vehicle 127.9 ± 1.65 days
Description: (§6) B6SJL-TgN SOD1/G93A(+)1Gur mice expressing high copy number of mutant human SOD1 with a Gly93Ala substitution [SOD1^G93A] and B6SJL-TgN (SOD1)2Gur mice expressing wild-type human SOD1 (WT) were obtained from Jackson Laboratories (Bar Harbor, ME, USA). Transgenic animals have been crossed with background-matched B6SJL wild-type female and selective breeding maintained each transgene in the […] state. All transgenic mice were identified analyzing extracts from tail tips by staining for SOD1 as previously described.
(§7) Overall, 24 male and female mice housed under diurnal lighting conditions (12 h darkness/light) were used. The number of female and male mice was balanced among all the experimental groups.
(§8) The newly synthesized compound III, dissolved in distilled water, was intraperitoneally administered daily at a dose of […], beginning at 2 months of age until 4,5 months of age.
Disease end stage was defined by the inability of mice to right themselves within 20 s when placed on their sides.
Data were evaluated as means ± SEM. Statistically significant differences among means were determined by one-way ANOVA followed by Student-Newman-Keuls/Bonferroni post-hoc test for western blotting, and Behavioral test. The Kaplan-Meier plot was used to evaluate survival, grip, rotarod and paralysis onset. Student's t-test was used for two groups comparison. […]

SOD1^G93A mice [3] = assay: Paralysis onset in ALS mice; assay type: in vivo; conditions: daily i.p., dose group not stated, vehicle 33.69 ± 1.31 days
Description: as §6, §7, §8
(§9) Motor coordination and balance was assessed using a five-station mouse rotarod apparatus (Ugo Basile; Milan, Italy) as previously described. In each station, the rod was 6 cm in length and 3 cm in diameter. […] Mice had three trials on the rod, and the latencies to fall were measured once a week and then averaged. […] Body weight was measured immediately before each session of behavioral tests. […]

[4] = Body weight during prolonged treatment; assay type: in vivo, mice
Description: as §6, §7, §8, §9

SOD1^G93A mice [5] = assay: Rotarod test (motor coordination and balance); assay type: in vivo
Description: as §6, §7, §8
Motor coordination and balance was assessed using a five-station mouse rotarod apparatus (Ugo Basile; Milan, Italy) as previously described. In each station, the rod was 6 cm in length and 3 cm in diameter. Mice were trained to maintain balance at increasing speed up to a constant speed of 14 rpm for three consecutive trials. The test sessions were conducted by one rotarod trial administered once a week. In this session, the speed of rotation was increased from 4 to 14 rpm over 60 s. Mice had three trials on the rod, and the latencies to fall were measured once a week and then averaged. […] Weekly evaluation of hind limb paralysis was performed. […] Body weight was measured immediately before each session of behavioral tests.
To investigate whether the reduced neuroinflammatory response observed in vitro through the effect on TNF-α expression was accompanied by an amelioration of the motor performance of these mice, behavioral tests were weekly performed on WT and SOD1^G93A mice, starting from the second month after birth (P60), when i.p. administration of compound III started and when the mice were asymptomatic. […]

SOD1^G93A mice [6] = assay: Hind limb grip test; assay type: in vivo
Description: as §6, §7, §8
Hind limb grip test was carried out by placing the mouse on a grid (45 cm long × 28 cm large) upside-down (30 cm above a foam pad). The test was performed once a week and the latency to fall off the grid was also measured up to a maximum of 60 s.
To investigate whether the reduced neuroinflammatory response observed in vitro through the effect on TNF-α expression was accompanied by an amelioration of the motor performance of these mice, behavioral tests were weekly performed on WT and SOD1^G93A mice, starting from the second month after birth (P60), when i.p. administration of compound III started and when the mice were asymptomatic. All animals were assigned to three experimental groups: SOD1^G93A+vehicle, SOD1 ^G93A +compound III at 1 mg/kg, and SOD1 ^G93A +compound III at 10 mg/kg, and then weighed, subjected to rotarod test, grip test and observed to detect the disease onset.

| SMILES | iNOS induction elicited by LPS (iNOS) | gastric damage evaluated as the lengths of the lesions [1] | overexpression of TNF-α induced by LPS exposure (TNF-α) | COX2 expression (COX2) | average lifespan (SOD1^G93A mice [2]) | paralysis onset (SOD1^G93A mice [3]) | body weight ([4]; SOD1^G93A mice treated for 8 weeks, vehicle group 10% reduction at 7 weeks) | body weight ([4]; WT mice, compound versus vehicle) | rotarod: time able to balance on the rotarod (SOD1^G93A mice [5]; SOD1^G93A mice, at 8 weeks of treatment, vehicle 3.7±1 sec, maximum 60 s) | rotarod onset (50% of the animals started to fall off the rotarod) (SOD1^G93A mice [5]; SOD1^G93A mice, day of treatment, vehicle around the 30th day) | rotarod performance (SOD1^G93A mice [5]; wild type mice) | onset of grip performance loss (50% of the animals started to lose their grip) (SOD1^G93A mice [6]; G93A mice, day after treatment, vehicle around the 35th day) | grip performance (latency to fall off the grid) (SOD1^G93A mice [6]; SOD1^G93A mice, at 6 weeks of treatment, vehicle 28.8 ± 4 sec, maximum 60 s) | grip performance (time remained on the grid) (SOD1^G93A mice [6]; SOD1^G93A mice, at 8 weeks of treatment) |
| --- | --- | --- | --- | --- | --- | --- | --- | --- | --- | --- | --- | --- | --- | --- |
| COc1ccc2c(c1)c(CC(=O)O)c(C)n2C1CCN(C)CC1 [Compound II, 2-(5-methoxy-2-methyl-1-(1-methylpiperidin-4-yl)-1H-indol-3-yl)acetic acid] | prevent iNOS induction | 0 mm | – | – | – | – | – | – | – | – | – | – | – | – |
| CCOC(=O)Cc1c(C)n(C2CCN(C)CC2)c2ccc(OC)cc12 [Compound III, Ethyl 2-(5-methoxy-2-methyl-1-(1-methylpiperidin-4-yl)-1H-indol-3-yl)acetate] | – | 3 ± 0.6 mm | prevent the overexpression of TNF-α | not COX2 | 146.2 ± 3 days | 42.47 ± 1.59 days | remained stable over time | No differences were observed | 21.4 ± 5 s | ~45 days | did not disrupt this performance | ~45 days | 43.8 ± 4 s | 20 s |
| COc1ccc2c(c1)c(CC(=O)O)c(C)n2C(=O)c1ccc(Cl)cc1 [indomethacin, reference compound] | – | 50 ± 8 mm | – | – | – | – | – | – | – | – | – | – | – | – |
